Holding throughout (experiment): NCI 60 cell line single dose screen
What all share (format): cell-based, human

In one assay the test system is A549/ATCC. The note with it: A549/ATCC (Non-Small Cell Lung Cancer), 10 micromolar, 48 h. From the text: (§1) Analog 10 was screened utilizing 60 different human tumor cell lines, representing leukemia, melanoma and cancers of the lung, colon, brain, ovary, breast, prostate, and kidney in order to show selective growth inhibition or cell killing of particular tumor cell lines. This screen is unique in that the complexity of a 60 cell line dose response produced by a given compound results in a biological response pattern which can be utilized in pattern recognition algorithms (COMPARE program. See: http://dtp.nci.nih.gov/docs/compare/compare.html). Using these algorithms, it is possible to assign a putative mechanism of action to a test compound, or to determine that the response pattern is unique and not similar to that of any of the standard prototype compounds included in the NCI database. In addition, following characterization of various cellular molecular targets in the 60 cell lines, it may be possible to select compounds most likely to interact with a specific molecular target.
(§2) The screening is a two-stage process, beginning with the evaluation of the compound against the 60 cell lines at a single dose of 10 uM.
(§3) The human tumor cell lines of the cancer screening panel are grown in RPMI 1640 medium containing 5% fetal bovine serum and 2 mM L-glutamine. For a typical screening experiment, cells are inoculated into 96 well microtiter plates in 100 μL at plating densities ranging from 5,000 to 40,000 cells/well depending on the doubling time of individual cell lines. After cell inoculation, the microtiter plates are incubated at 37° C., 5% CO2, 95% air and 100% relative humidity for 24 h prior to addition of experimental drug.
(§4) After 24 h, two plates of each cell line are fixed in situ with TCA, to represent a measurement of the cell population for each cell line at the time of drug addition (Tz). Experimental drugs are solubilized in dimethyl sulfoxide at 400-fold the desired final maximum test concentration and stored frozen prior to use. At the time of drug addition, an aliquot of frozen concentrate is thawed and diluted to twice the desired final maximum test concentration with complete medium containing 50 μg/ml gentamicin.
(§5) Following drug addition, the plates are incubated for an additional 48 h at 37° C., 5% CO2, 95% air, and 100% relative humidity. For adherent cells, the assay is terminated by the addition of cold TCA. Cells are fixed in situ by the gentle addition of […] of cold 50% (w/v) TCA (final concentration, 10% TCA) and incubated for 60 minutes at 4° C. The supernatant is discarded, and the plates are washed five times with tap water and air dried. Sulforhodamine B (SRB) solution (100 μl) at 0.4% (w/v) in 1% acetic acid is added to each well, and plates are incubated for 10 minutes at room temperature. After staining, unbound dye is removed by washing five times with 1% acetic acid and the plates are air dried. Bound stain is subsequently solubilized with 10 mM trizma base, and the absorbance is read on an automated plate reader at a wavelength of 515 nm. For suspension cells, the methodology is the same except that the assay is terminated by fixing settled cells at the bottom of the wells by gently adding 50 μl of 80% TCA (final concentration, 16% TCA). Using the absorbance measurements [time zero, (Tz), control growth, (C), and test growth in the presence of drug (Ti)], the percentage growth is calculated.

The next assay has as its system CAKI-1. The settings on record: CAKI-1 (Renal Cancer), 10 micromolar, 48 h.
Description: as §1, §2, §3, §4, §5

In another assay the test system is HCT-116. The note with it: HCT-116 (Colon Cancer), 10 micromolar, 48 h.
Description: as §1, §2, §3, §4, §5

For another assay, the system named is IGROV1. The note with it: IGROV1 (Ovarian Cancer), 10 micromolar, 48 h.
Description: as §1, §2, §3, §4, §5

A further assay has as its system MALME-3M. The note with it: MALME-3M (Melanoma), 10 micromolar, 48 h.
Description: as §1, §2, §3, §4, §5

Another assay has as its system MDA-MB-231/ATCC. The settings on record: MDA-MB-231/ATCC (Breast Cancer), 10 micromolar, 48 h.
Description: as §1, §2, §3, §4, §5

Another assay relates to MDA-MB-435. The settings on record: MDA-MB-435 (Melanoma), 10 micromolar, 48 h.
Description: as §1, §2, §3, §4, §5

The subject of the next assay is MDA-MB-468. The settings on record: MDA-MB-468 (Breast Cancer), 10 micromolar, 48 h.
Description: as §1, §2, §3, §4, §5

A further assay relates to MOLT-4. The settings on record: MOLT-4 (Leukemia), 10 micromolar, 48 h.
Description: as §1, §2, §3, §4, §5

In another assay the test system is NCI-H23. The note with it: NCI-H23 (Non-Small Cell Lung Cancer), 10 micromolar, 48 h.
Description: as §1, §2, §3, §4, §5

Another assay relates to NCI-H460. The settings on record: NCI-H460 (Non-Small Cell Lung Cancer), 10 micromolar, 48 h.
Description: as §1, §2, §3, §4, §5

The subject of the next assay is OVCAR-3. The settings on record: OVCAR-3 (Ovarian Cancer), 10 micromolar, 48 h.
Description: as §1, §2, §3, §4, §5

The subject of another assay is PC-3. The note with it: PC-3 (Prostate Cancer), 10 micromolar, 48 h.
Description: as §1, §2, §3, §4, §5

In another assay the test system is RPMI-8226. The settings on record: RPMI-8226 (Leukemia), 10 micromolar, 48 h.
Description: as §1, §2, §3, §4, §5

The test system of a further assay is RXF 393. The note with it: RXF 393 (Renal Cancer), 10 micromolar, 48 h.
Description: as §1, §2, §3, §4, §5

The test system of another assay is SK-MEL-28. The note with it: SK-MEL-28 (Melanoma), 10 micromolar, 48 h.
Description: as §1, §2, §3, §4, §5

The next assay deals with SK-MEL-2. The note with it: SK-MEL-2 (Melanoma), 10 micromolar, 48 h.
Description: as §1, §2, §3, §4, §5

The test system of a further assay is SK-MEL-5. The settings on record: SK-MEL-5 (Melanoma), 10 micromolar, 48 h.
Description: as §1, §2, §3, §4, §5

Another assay concerns SNB-19. The note with it: SNB-19 (CNS Cancer), 10 micromolar, 48 h.
Description: as §1, §2, §3, §4, §5

The next assay concerns SW-620. The note with it: SW-620 (Colon Cancer), 10 micromolar, 48 h.
Description: as §1, §2, §3, §4, §5

A further assay concerns UO-31. The note with it: UO-31 (Renal Cancer), 10 micromolar, 48 h.
Description: as §1, §2, §3, §4, §5

The source of these data is US8350062B2, “Synthesis and anticancer activity of new actin-targeting small-molecule agents” (priority 2009, dated 2013).

Take `COCCC(=O)NC[C@H](O)[C@H](C)C(=O)NCCC[C@H]1O[C@@]2(CCC[C@@H](CC[C@H](C)/C=C(\C)[C@H](C)O)O2)CCC1C` (stereo partly drawn) [Analog 10]: the “Growth Percent” value is on record as 44.50% with A549/ATCC; −37.52% with CAKI-1; 55.84% in the assay with HCT-116; 17.52% with IGROV1; 72.36% in the assay with MALME-3M; 43.18% with MDA-MB-231/ATCC. Further, the “Growth Percent” value is recorded as 72.88% in the assay on MDA-MB-435; 29.03% with MDA-MB-468; 57.48% in the assay with MOLT-4; 56.78% in the assay on NCI-H23; 48.25% with NCI-H460; 83.59% with OVCAR-3. Moreover, the “Growth Percent” value is 66.25% in the assay on PC-3; 58.70% in the assay on RPMI-8226; 26.83% with RXF 393; 71.16% in the assay with SK-MEL-28; 53.99% with SK-MEL-2; 75.27% with SK-MEL-5. Besides, the entries for the “Growth Percent” value in the assay on SNB-19, in the assay with SW-620 and in the assay with UO-31 were 75.95%, 45.90% and 22.67%, respectively.
